Assay results as given in patent US9994581B2, “Bromodomain inhibitors” (AbbVie Inc., priority 2013, dated 2018).
Where two headings read alike, the source gives them in different places.

Assays:
[1] = system: LPS induced IL-6 (Interleukin-6) production; experiment: LPS (lipopolysaccharide) induced IL-6 production mouse assay; settings: oral administration one hour before LPS 2.5 mg/kg i.p., serum IL-6 2 hours after LPS, p < 0.05
Procedure: Compounds of the Examples listed in Table 2 were assayed for their ability to inhibit LPS (lipopolysaccharide) induced IL-6 (Interleukin-6) production in mice. Fox Chase SCID® female mice (Charles Rivers Labs, 8 per group) or CD1 female mice received an intraperitoneal challenge of lipopolysaccharide (2.5 mg/kg, L2630 E. coli 0111:B4) one hour after oral administration of compounds. Mice were euthanized 2 hours after lipopolysaccharide injection, blood was removed by cardiac puncture, and then the serum harvested from the blood samples was frozen at −80° C. On the day of the assay the serum samples were brought to room temperature and then diluted 1:20 in phosphate-buffered saline containing 2% bovine serum albumin. Interleukin-6 measurements were performed using a cytokine assay from Meso Scale Discovery (Gaithersburg, Md.) for mouse serum analysis according to the manufacturer's protocol and read on a SECTOR Imager 6000 (Meso Scale Discovery, Gaithersburg, Md.) instrument. Statistical analysis was performed using Prism software (version 5.0) incorporating Dunnett's one way ANOVA. The IL-6 mean and standard deviation of the group of vehicle treated animals were compared with the IL-6 mean and standard deviation of the group treated with drug.

[2] = biological target: BRD4 (BDI-BDII_K57-K550) (Homo sapiens, UniProt O60885); experiment: TR-FRET bromodomain binding assay; settings: His-tagged tandem bromodomain, Alexa647-labeled probe; Ki calculated from IC50s, probe Kd and probe concentration
Procedure: A time-resolved fluorescence resonance energy transfer (TR-FRET) assay was used to determine the affinities of compounds of the Examples listed in Table 1 for the tandem domain of bromodomain BRD4. […] An Alexa647-labeled BET-inhibitor was used as the fluorescent probe in the assay.
TR-FRET data were normalized to the means of 24 no-compound controls (“high”) and 8 controls containing 1 μM un-labeled probe (“low”). Percent inhibition was plotted as a function of compound concentration and the data were fit with the 4 parameter logistic equation to obtain IC50s. Inhibition constants (Ki) were calculated from the IC50s, probe Kd and probe concentration. Typical Z′ values were between 0.65 and 0.75.

[3] = system: breast cancer cell line MX-1; experiment: MX-1 cell line proliferation assay (3-day, Cell Titer Glo); format: cell-based; settings: 72 hours, read-out: Cellular proliferation: EC50
Procedure: The impact of compounds of the Examples on cancer cell proliferation was determined using the breast cancer cell line MX-1 (ATCC) in a 3-day proliferation assay and the data are reported in Table 1. […] For compound testing, MX-1 cells were plated in 96-well black bottom plates at a density of 5000 cells/well in 90 μL of culture media and incubated at 37° overnight to allow cell adhesion and spreading. Compound dilution series were prepared in DMSO via a 3-fold serial dilution from 3 mM to 0.1 μM. The DMSO dilution series were then diluted 1:100 in phosphate buffered saline, and 10 μL of the resulted solution were added to the appropriate wells of the MX-1 cell plate. The final compound concentrations in the wells were 3, 1, 0.3, 0.1, 0.03, 0.01, 0.003, 0.001, 0.0003, and 0.0001 μM, or 1, 0.3, 0.1, 0.03, 0.01, 0.003, 0.001, 0.0003, 0.0001, and 0.00003 μM.
Luminescence readings from the Cell Titer Glo assay were normalized to the DMSO treated cells and analyzed using the GraphPad Prism software with sigmoidal curve fitting to obtain EC50s.

| Compound | Inhibition of LPS induced IL-6 production, % inhibition ([1]; CD1 mouse strain) [%] | Ki [2] [nM] | EC50 ([3]; MX-1 cells) [nM] | Inhibition of LPS induced IL-6 production, % inhibition ([1]; SCID mouse strain) [%] | EC50 ([3]; Homo sapiens, MX1, MX-1 cells) [nM] |
| --- | --- | --- | --- | --- | --- |
| 17-(ethylsulfonyl)-11-fluoro-2-methyl-6,7,8,9-tetrahydrodibenzo[4,5:7,8][1,6]dioxacyclododecino[3,2-c]pyridin-3(2H)-one [Example A-22] | 83 | 1.51 | 9 |  |  |
| CCS(=O)(=O)c1ccc2c(c1)-c1cn(C)c(=O)cc1OCCCc1cc(Cl)ccc1O2 [Example A-3, 10-chloro-16-(ethylsulfonyl)-2-methyl-7,8-dihydro-2H-dibenzo[4,5:7,8][1,6]dioxacycloundecino[3,2-c]pyridin-3(6H)-one] |  | 7.54 |  | 78 | 31.1 |
| CCS(=O)(=O)Nc1ccc2c(c1)-c1cn(C)c(=O)cc1OCCCc1cc(Cl)ccc1O2 [Example A-5, N-(10-chloro-2-methyl-3-oxo-3,6,7,8-tetrahydro-2H-dibenzo[4,5:7,8][1,6]dioxacycloundecino[3,2-c]pyridin-16-yl)ethanesulfonamide] |  | 1.3 |  | 73 | 12.8 |
| CCS(=O)(=O)Nc1ccc2c(c1)-c1cn(C)c(=O)cc1OCCCc1cc(F)cc(F)c1O2 [Example A-6, N-(10,12-difluoro-2-methyl-3-oxo-3,6,7,8-tetrahydro-2H-dibenzo[4,5:7,8][1,6]dioxacycloundecino[3,2-c]pyridin-16-yl)ethanesulfonamide] | 86 | 1.51 |  |  | 9.6 |
| CCS(=O)(=O)Nc1ccc2c(c1)-c1cn(C)c(=O)cc1OCCCCc1cc(F)cc(F)c1O2 [Example A-14, N-(11,13-difluoro-2-methyl-3-oxo-2,3,6,7,8,9-hexahydrodibenzo[4,5:7,8][1,6]dioxacyclododecino[3,2-c]pyridin-17-yl)ethanesulfonamide] | 77 |  |  |  |  |
| CCS(=O)(=O)Nc1ccc2c(c1)-c1cn(C)c(=O)cc1OCCNC(=O)c1cc(Cl)ccc1O2 [Example B-4, N-(11-chloro-2-methyl-3,9-dioxo-2,3,6,7,8,9-hexahydrodibenzo[f,i]pyrido[3,4-k][1,8,4]dioxazacyclododecin-17-yl)ethanesulfonamide] |  | 10.5 |  |  | 257 |
| CCS(=O)(=O)Nc1ccc2c(c1)-c1cn(C)c(=O)cc1OCCN(S(C)(=O)=O)Cc1cc(Cl)ccc1O2 [Example B-6, N-[11-chloro-2-methyl-8-(methylsulfonyl)-3-oxo-2,3,6,7,8,9-hexahydrodibenzo[f,i]pyrido[3,4-k][1,8,4]dioxazacyclododecin-17-yl]ethanesulfonamide] |  | 1.57 |  |  | 17.1 |
| CCS(=O)(=O)Nc1ccc2c(c1)-c1cn(C)c(=O)cc1OCCN(C(C)=O)Cc1cc(Cl)ccc1O2 [Example B-7, N-(8-acetyl-11-chloro-2-methyl-3-oxo-2,3,6,7,8,9-hexahydrodibenzo[f,i]pyrido[3,4-k][1,8,4]dioxazacyclododecin-17-yl)ethanesulfonamide] |  | 1.61 |  |  | 45.4 |
| CCOC(=O)N1CCOc2cc(=O)n(C)cc2-c2cc(NS(=O)(=O)CC)ccc2Oc2ccc(Cl)cc2C1 [Example B-8, ethyl 11-chloro-17-[(ethylsulfonyl)amino]-2-methyl-3-oxo-2,3,6,7-tetrahydrodibenzo[f,i]pyrido[3,4-k][1,8,4]dioxazacyclododecine-8(9H)-carboxylate] |  | 0.97 |  |  | 17 |
| CCNC(=O)N1CCOc2cc(=O)n(C)cc2-c2cc(NS(=O)(=O)CC)ccc2Oc2ccc(Cl)cc2C1 [Example B-9, 11-chloro-N-ethyl-17-[(ethylsulfonyl)amino]-2-methyl-3-oxo-2,3,6,7-tetrahydrodibenzo[f,i]pyrido[3,4-k][1,8,4]dioxazacyclododecine-8(9H)-carboxamide] |  | 0.64 |  |  | 47.3 |
| CCS(=O)(=O)Nc1ccc2c(c1)-c1cn(C)c(=O)cc1OCCN(C(=O)OC(C)(C)C)Cc1cc(Cl)ccc1O2 [Example B-10, tert-butyl 11-chloro-17-[(ethylsulfonyl)amino]-2-methyl-3-oxo-2,3,6,7-tetrahydrodibenzo[f,i]pyrido[3,4-k][1,8,4]dioxazacyclododecine-8(9H)-carboxylate] |  | 1.24 |  |  | 29.7 |
| CCS(=O)(=O)Nc1ccc2c(c1)-c1cn(C)c(=O)cc1OCCNCc1cc(Cl)ccc1O2 [Example B-11, N-(11-chloro-2-methyl-3-oxo-2,3,6,7,8,9-hexahydrodibenzo[f,i]pyrido[3,4-k][1,8,4]dioxazacyclododecin-17-yl)ethanesulfonamide] |  | 9.45 |  |  | 25.1 |
| CCS(=O)(=O)Nc1ccc2c(c1)-c1cn(C)c(=O)cc1OCCN(CC1CC1)Cc1cc(Cl)ccc1O2 [Example B-12, N-[11-chloro-8-(cyclopropylmethyl)-2-methyl-3-oxo-2,3,6,7,8,9-hexahydrodibenzo[f,i]pyrido[3,4-k][1,8,4]dioxazacyclododecin-17-yl]ethanesulfonamide] |  | 5.1 |  |  | 8.01 |
| CCS(=O)(=O)Nc1ccc2c(c1)-c1cn(C)c(=O)cc1OCCN(CCC(F)(F)F)Cc1cc(Cl)ccc1O2 [Example B-13, N-[11-chloro-2-methyl-3-oxo-8-(3,3,3-trifluoropropyl)-2,3,6,7,8,9-hexahydrodibenzo[f,i]pyrido[3,4-k][1,8,4]dioxazacyclododecin-17-yl]ethanesulfonamide] |  | 2.22 |  |  | 16.8 |
| CCS(=O)(=O)Nc1ccc2c(c1)-c1cn(C)c(=O)cc1OCCN(C1CCC1)Cc1cc(Cl)ccc1O2 [Example B-14, N-(11-chloro-8-cyclobutyl-2-methyl-3-oxo-2,3,6,7,8,9-hexahydrodibenzo[f,i]pyrido[3,4-k][1,8,4]dioxazacyclododecin-17-yl)ethanesulfonamide] |  | 2.14 |  |  | 5.95 |
| CCOC(=O)NS(=O)(=O)N1CCOc2cc(=O)n(C)cc2-c2cc(NS(=O)(=O)CC)ccc2Oc2ccc(Cl)cc2C1 [Example B-15, ethyl ({11-chloro-17-[(ethylsulfonyl)amino]-2-methyl-3-oxo-2,3,6,7-tetrahydrodibenzo[f,i]pyrido[3,4-k][1,8,4]dioxazacyclododecin-8(9H)-yl}sulfonyl)carbamate] |  | 1 |  |  | 153 |
| CCS(=O)(=O)Nc1ccc2c(c1)-c1cn(C)c(=O)cc1OCCN(S(=O)(=O)NC(C)=O)Cc1cc(Cl)ccc1O2 [Example B-16, N-({11-chloro-17-[(ethylsulfonyl)amino]-2-methyl-3-oxo-2,3,6,7-tetrahydrodibenzo[f,i]pyrido[3,4-k][1,8,4]dioxazacyclododecin-8(9H)-yl}sulfonyl)acetamide] |  | 1.28 |  |  | > 1000 |
| Cn1cc2c(cc1=O)OCCOCc1cc(Cl)ccc1Oc1ccc(CS(C)(=O)=O)cc1-2 [Example B-17, 11-chloro-2-methyl-17-((methylsulfonyl)methyl)-6,7-dihydro-2H-dibenzo[6,7:9,10][1,4,8]trioxacyclododecino[11,12-c]pyridin-3(9H)-one] |  | 7.7 |  |  | 30.9 |
| CCOC(=O)c1ccc2c(c1)-c1cn(C)c(=O)cc1OCCOCc1cc(Cl)ccc1O2 [Example B-17c, ethyl 11-chloro-2-methyl-3-oxo-3,6,7,9-tetrahydro-2H-dibenzo[6,7:9,10][1,4,8]trioxacyclododecino[11,12-c]pyridine-17-carboxylate] |  | 10.7 |  |  | 6.7 |
